Laboratory results: ChEMBL document CHEMBL5385856, “Novel 1,4,5,6-tetrahydrocyclopenta[d]imidazole-5-carboxamide-based JNK3 inhibitors: Design, synthesis, molecular docking, and therapeutic potential in neurodegenerative diseases” (Eur J Med Chem, 2023)

System: Cortical neurone
Experiment: Neuroprotective activity against Abeta42-induced neuronal apoptosis in Sprague-Dawley rat primary cortical neuron cells assessed as cell viability at 20 uM preincubated for 90 mins followed by Abeta42 addition for 24 hrs and measured on day 5 by MTT assay (reference value: 52%)
Type: functional
Details: 120 h, time 5 day, read-out: Activity

Compound: Oc1ccc(/C=C/c2cc(O)cc(O)c2)cc1 [RESVERATROL]
- viability at 20 µM: 84.2%
